row,Structure (SMILES),melting point [°C]
1,S=S1N=C2SCSC2=N1,99
2,CO/C=C1/C(=O)NC(=O)c2ccc(Br)cc21,210 to 211
3,CC(Oc1ccc(Oc2ncc(C(F)(F)F)cc2Cl)cc1)C(=O)Nc1ccc(C(F)(F)F)cc1 (configuration not stated),140 to 143
4,"CC(C)(C)OC(=O)NC1Cc2ccccc2CC1=O (single isomer, unassigned; (+))",76
5,Oc1cccc2ccc3ccccc3c12,114 to 116
6,COC(=O)C(CO)N(Cc1ccc(Cl)cc1N)S(=O)(=O)c1ccc(OC)cc1 (configuration not stated),99 to 112
7,Cc1noc(-c2cccc(CN3C(=O)C4(COc5cc6c(cc54)OCCO6)c4ccccc43)c2)n1 (configuration not stated),80 to 89
8,Cn1cc(-c2cccc(C(F)(F)F)c2)c(=O)o1,132 to 134
9,O=C(O)c1ccc2c(c1)CCc1c(F)cccc1C2=O,248 to 250
10,CC1(Cc2ccccc2)CCNC1=O (configuration not stated),89 to 90
11,COC(=O)C1=C(CCc2cccs2)NC(CC(=O)N2CCN(C)CC2)=C(C(=O)OC)C1c1c(Cl)cccc1Cl (configuration not stated),142 to 145
12,COc1cc(Oc2cccc3c2NC(=O)C3SC)cc(OC)c1OC (configuration not stated),155 to 158
13,CCN1CCN(c2nc(C)c(C(=O)NCc3cccnc3)s2)C1=O,163 to 164
14,O=C(O)[C@H]1CCCN1C(=O)Cc1ccc(CC(=O)N2CCC[C@@H]2C(=O)O)cc1,210 to 214
15,Cc1cc(C)cc(Sc2c(C(C)C)nc(CCOC(N)=O)n2C)c1,138 to 140
16,COC(=O)C1=C(C)Nc2nc(N3CCOCC3)nc(N3CCOCC3)c2C1c1ccccc1C#N (configuration not stated),221
17,CCCCCCCCCCCCS(=O)(=O)N[C@H]1CCCNC(=O)C1,100 to 101
18,Cc1cc(COc2ccc(C(=O)NC[C@@H](C(=O)NO)N3CCN(Cc4ccc(F)cc4)CC3)cc2)c2ccccc2n1,167
19,CC(C)OC(=O)NNc1n[nH]c2cc(Cl)ccc12,184 to 185

row,Structure (SMILES),melting point [°C]
1,CCn1nc2c(cc1=O)CCSc1sc(Br)cc1-2,149 to 151
2,CCCOc1ccc(-c2scc(-c3ccccc3OC(F)(F)F)c2CC(=O)N=C(N)N)cc1,90 to 92
3,Clc1ccc2nc(N3CCN(c4c(Cl)cncc4Cl)CC3)[nH]c2c1,258 to 260
4,Brc1cccc(C=C2c3ccccc3CCc3ccccc32)c1,105
5,N#CCc1cc(O)c(O)c(F)c1,100 to 101
6,COCCCNS(=O)(=O)Cc1cccc(Nc2cc(-c3ccccc3OC)ncn2)c1,149 to 151
7,CC(=O)NC[C@@H]1C[C@H]1c1cccc2nn(C)cc12 (relative stereo),145 to 147
8,CSC[C@H](NC(=O)C(C)(C)SC)C(=O)O,120 to 121
9,Cc1cc(C=C2SC(=O)NC2=O)ccc1-c1cccc(CN(C)C(=O)OC(C)(C)C)c1,156
10,CCC(O)(CC)c1ccc(-c2cccc(COc3ccc(CO)c(CO)c3)c2)c(C)c1,87
11,COc1ccc(C2(CCN3CCC(C(N)=O)(c4ccccc4)CC3)CCN(C(=O)c3cc(OC)c(OC)c(OC)c3)C2)cc1OC (configuration not stated),60 to 62
12,CC(=O)OCc1cc(=O)n2ccsc2n1,144 to 145
13,COc1ccc(CCC(=O)CCI)cc1,38 to 42
14,CN(C(=O)c1c(Cl)cccc1Cl)c1cc(-c2ccc(Cl)cc2)on1,175 to 178
15,N#Cc1nn(-c2c(Cl)cc(C(F)(F)F)cc2Cl)c(Br)c1[N+](=O)[O-],147 to 150
16,CNC(=S)Nc1c(C)cccc1N1CCOCC1,182 to 183
17,CC(=O)OCC1OC(n2c(Cl)c(C=O)c3cc(Cl)c(Cl)cc32)C(O)C1O (configuration not stated),154 to 155
18,Cc1ccsc1-c1nc(COc2ccc(CCCn3ccnc3)cc2)co1,72 to 73
19,O=C(O)[C@H](Cc1ccccc1)NC(=S)Cc1ccc([N+](=O)[O-])cc1,149 to 150

row,Structure (SMILES),melting point [°C]
1,COc1ccccc1C(=O)CN1C(=O)C(NC(=O)Nc2cccc(-c3nnn[nH]3)c2)N=C(c2ccccc2F)c2cccc(C)c21 (configuration not stated),194 to 195
2,CNC(=O)OC1CCC2(CO2)C(C2(C)OC2CC=C(C)C)C1OC (configuration not stated),92 to 93
3,Cc1ccc(NC(=O)C(=O)N2CCC(Cc3ccccc3)CC2)cc1,115 to 117
4,CCN(CC)CCN1C(=O)Nc2cnccc2C1c1ccccc1 (configuration not stated),138 to 140
5,CCOC(=O)c1cn(C2CC2)c2cc(C3=CCN(C(C)=O)CC3)c(F)cc2c1=O,190 to 192
6,CCOC(=O)c1nn(-c2ccccc2)c(=O)c2c1c1ccc(Cl)cc1n2C,216 to 218
7,COc1ccc(-c2ccc3c(c2)S(=O)(=O)NC(C2CCCCC2)N3)c(OC)c1 (configuration not stated),208 to 213
8,CC1(COC(=O)N2CCN(c3ccc(OC(F)(F)F)cc3)CC2)Cn2cc([N+](=O)[O-])nc2O1 (configuration not stated),138 to 140
9,CC(C)(C)OC(=O)[C@@H]1CCC(=O)N1,91 to 92
10,O=C(O)[C@H](Cc1ccccc1)NC(=O)[C@@H]1CCCN1C(=O)c1ccccc1,200 to 202
11,CC1(C)CC(=O)c2c(C3CC3)sc(C#N)c2C1,80 to 83
12,CCOC(=O)c1cn2c3c(c(-c4cc(C)nc(C)c4)c(F)cc3c1=O)OC[C@@H]2C,267 to 273
13,CCCn1c(=O)c2c(nc(/C=C/c3ccco3)n2C)n(CCC)c1=O,161 to 162
14,CCCc1c(OCCCSc2nc3ccccc3[nH]2)ccc(C(C)=O)c1O,149 to 150
15,CCNNc1nc(C)c(C(=O)OCC)c(Cl)c1[N+](=O)[O-],117 to 120
16,CC(=O)Nc1ccc(-c2c[nH]c(=O)cn2)cc1,268 to 275
17,CC1(C)CCC(C)(C)c2cc(CC(=O)O)ccc21,149 to 150
18,Clc1ccc2[nH]nc(N3CCNCC3)c2c1,60 to 62

# Further lines, results first:
row,melting point [°C],Structure (SMILES)
1,84 to 87,CCCCCCCCCCCCCCOc1ccc(C(=O)N(CC(=O)O)CC(=O)O)cc1OCCCCCCCCCCCCCC
2,200 to 202,COCCc1sc2ncnc(N)c2c1-c1ccc(NC(=O)Cc2cccc(C)c2)cc1
3,211 to 212,C=CCNc1nc(NCCC)c2cc([N+](=O)[O-])ccc2n1
4,153 to 155,O=C(O)c1ccc(OC2CC2)cc1
5,238 to 239,Cc1cnc2c(NC(=O)c3c(Cl)cccc3Cl)ccc(Br)c2c1
6,237 to 240,COc1cc(Nc2c(C#N)cnc3cc(/C=C/C(=O)O)ccc23)c(Cl)cc1Cl
7,202 to 205,Cc1cc2c(cc1Sc1ccc(C(=O)O)c(Cl)c1)C(C)(C)CCC2(C)C
8,287 to 288,Cc1ccsc1C=Cc1nccn1C
9,208 to 210,CCc1cccc(CC)c1NC(=O)c1c2n(c(C)c(Br)c1=O)CCCC2
10,107 to 109,COc1cc(C(OC(C)=O)C(COC(C)=O)[N+](=O)[O-])cc(OC)c1OC (configuration not stated)
11,195 to 197,CC(=O)c1ccn2c(C)c(C)nc2c1N
12,> 300,O=C(Nc1cc(C(=O)O)cc(C(=O)O)c1)Oc1ccc([N+](=O)[O-])cc1
13,253 to 255,Cc1ccc(-n2nc(CC(=O)N(C)C)c3c4ccc(Cl)cc4n(C)c3c2=O)cn1
14,90.5 to 92.5,CN1CCN(CCCN2N=C3C(=Cc4ccccc4)CSCC3C2c2ccccc2)CC1 (configuration not stated)
15,95.5 to 98,Cc1c(Cc2ccccc2)oc2cc(O)c(O)cc12
16,219,COc1nc2cc(C)c(C)c(NS(C)(=O)=O)c2nc1OC
17,138 to 141,COc1c(C)nc2sc(Cl)cn2c1=O
18,110 to 112,N#Cc1cc(N)ccc1N1CCC(N2CCCCC2)CC1
19,233 to 234,COc1cc2nc(N)nc(-c3ccc(O)c(Br)c3)c2cc1OC
20,135 to 138,CC(=O)Nc1ccc(S(F)(F)(F)(F)F)cc1[N+](=O)[O-]
21,117 to 119,CC(=O)N1CCCN(NC(=O)c2ccc(F)cc2)CC1
22,285 to 287,Cn1cnc2c1c(=O)n(CCCN1CCN(c3ccc(Cl)nn3)CC1)c(=O)n2C
23,53,COc1cc(C)c(CCCCCCCCCCCCCCCCCCOC(C)=O)c(O)c1OC

row,melting point [°C],Structure (SMILES)
1,128 to 129,N#Cc1ccc(OCCCOc2cccc(-c3cc4ccc(C#N)cc4o3)c2)cc1
2,146 to 152,Cc1cc2cc(NC(=O)NC34CC5CC(CC(C5)C3)C4)ccc2[nH]1
3,53 to 55,CCCCCCCCCCCCCCCCCCOC(=O)c1ccc(CBr)cc1
4,129 to 130,COc1cc(OC)c2c(C)c(CCCl)c(=O)oc2c1
5,149 to 150,CCn1nc(Cc2ccc(NC(=O)/C=C/c3cnn(C)c3-c3ccc(F)cc3)cc2)oc1=O
6,187 to 189,C#CC(C)(C)OC(=O)Nc1ccc(-c2ncn(-c3ccc(C(F)(F)F)cc3)n2)cc1
7,271,Cc1ccc(N2C(=O)C(O)=C(C(=O)c3ccc(C(C)C)cc3)C2c2ccc(Cn3ncnn3)cc2)nn1 (configuration not stated)
8,78 to 80,COc1ccc2c(c1)c(CCl)nn2Cc1ccccc1
9,> 175,O=c1n(O)ccn1Cc1ccc(OCc2ccccc2)cc1
10,150,Cc1cc(C)cc(NCc2ccc3nc(NC4CCNC(CCN5CCOCC5)C4)n(Cc4nc(C)ccc4O)c3c2)c1 (configuration not stated)
11,191 to 192,COc1cc(Nc2nccc(-c3cccc(O)c3)n2)cc(OC)c1OC
12,78 to 79,Clc1cc2snnc2s1
13,106 to 108,COc1ccc(CNc2nc(NC[C@@H](C)O)nc3c2ncn3C(C)C)c(O)c1
14,47 to 49,COc1cc(SC)ccc1O
15,123 to 124,C/C(=C\c1ccc(O)cc1)c1ccc2c(c1)SC(C)(C)S2
16,154 to 156,Cc1nc2cc(-c3nn(C(C)c4oc5ccccc5c(=O)c4-c4cccc(F)c4)c4ncnc(N)c34)ccc2[nH]1 (configuration not stated)
17,42 to 45,CCOC(=O)CC(=O)Nc1cc(F)cc(F)c1
18,275,NC(C(=O)O)c1ccc(C=CC2CC2)[nH]1 (configuration not stated)
19,80,CC(C)OC(=O)n1c(Cc2ccccc2)noc1=O
20,68 to 70,CC(=O)OC1CC(COC(=O)c2ccccc2)OC1n1cc(F)c(=O)[nH]c1=O (configuration not stated)
21,117 to 118,O=c1ccc2ccc(OCCCN3CCN(c4ccccc4)CC3)cc2o1
22,106 to 109,CC(=O)CC(=O)OCN1C(=O)c2ccccc2C1=O
23,91 to 93,COc1cc(Oc2csc(C(F)(F)F)c2)nc(-c2ccc(C(F)(F)F)cc2)n1
